Drawing on patent US20260116920A1, “HUMAN TRANSFERRIN RECEPTOR BINDING PEPTIDE” (PEPTIDREAM INC., priority 2021, published 2026), this text covers Kd for twelve compounds.

Positions of bridges follow the written chain, without caps; N, C: chain ends. Non-standard residues stand in square brackets, D forms with d. Residues, ends and D or L forms follow the SMILES beside them. *: point of attachment. Ala(1-CH2CO2H-4-piperidyl) = N[C@@H](CC1CCN(CC(=O)O)CC1)C(=O)O; Trp(1-CH2COOH) = N[C@@H](Cc1cn(CC(=O)O)c2ccccc12)C(=O)O; Phe(3-COOH) = N[C@@H](Cc1cccc(C(=O)O)c1)C(=O)O; NH(CH2CH2O)8Me = COCCOCCOCCOCCOCCOCCOCCOCCN*; NMePhe(3-Cl) = CN[C@@H](Cc1cccc(Cl)c1)C(=O)O; NMeY = CN[C@@H](Cc1ccc(O)cc1)C(=O)O; 3Pal = N[C@@H](Cc1cccnc1)C(=O)O; 4Pal = N[C@@H](Cc1ccncc1)C(=O)O; PEG4 = NCCOCCOCCOCCOCCC(=O)O; Carboxymethyl = O=C(O)C*; NHCH2CH2OH = OCCN*

For the test, the target named is T1, human transferrin receptor (hTfR) (Homo sapiens, UniProt P02786).
T1 construct: made in house
T1 sequence (P02786 89-760 limits assumed): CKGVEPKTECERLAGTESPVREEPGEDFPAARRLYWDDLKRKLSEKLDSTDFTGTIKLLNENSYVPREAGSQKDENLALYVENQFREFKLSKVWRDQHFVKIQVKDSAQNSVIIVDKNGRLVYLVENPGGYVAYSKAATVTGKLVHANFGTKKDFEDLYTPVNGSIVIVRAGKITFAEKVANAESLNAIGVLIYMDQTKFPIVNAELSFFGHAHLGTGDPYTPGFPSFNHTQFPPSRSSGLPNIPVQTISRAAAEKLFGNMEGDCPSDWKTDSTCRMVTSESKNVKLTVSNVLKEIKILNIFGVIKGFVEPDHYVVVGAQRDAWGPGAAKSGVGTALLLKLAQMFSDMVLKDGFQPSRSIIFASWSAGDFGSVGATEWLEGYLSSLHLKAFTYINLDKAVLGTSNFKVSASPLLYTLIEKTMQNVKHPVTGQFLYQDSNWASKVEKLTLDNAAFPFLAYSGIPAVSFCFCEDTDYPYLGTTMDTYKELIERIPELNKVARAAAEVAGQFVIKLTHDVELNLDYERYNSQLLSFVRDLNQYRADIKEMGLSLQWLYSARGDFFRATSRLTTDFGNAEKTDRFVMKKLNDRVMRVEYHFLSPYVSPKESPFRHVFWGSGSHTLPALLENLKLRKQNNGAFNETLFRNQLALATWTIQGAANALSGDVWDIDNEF
Put plainly: Evaluation of molecular interaction between transferrin receptor (hTfR) and peptide using surface plasmon resonance (SPR). The class given is binding. The conditions noted are these: KD class for binding to hTfR by SPR; peptide with the linker shown in the same line; 'low signal indicates no activity'; read-out: SPR. How it is done: Evaluation Test of Molecular Interaction Between Transferrin Receptor (hTfR) and Peptide Using Surface Plasmon Resonance (SPR)
The intermolecular interactions of various synthesized peptides with the transferrin receptor (hTfR) by surface plasmon resonance (SPR) of the peptides were tested by the methods described below. Specific test methods are shown below.
NTA sensor chip (Global Life Sciences Technologies Japan K.K.) was inserted into BiacoreT200 (Global Life Sciences Technologies Japan K.K.), then the priming operation was performed three times by using running buffer containing: 10 mM HEPES pH 8.0 (Nacalai Tesque, Inc.), 150 mM NaCl (Nacalai Tesque, Inc.), 0.05% Tween 20 (Nacalai Tesque, Inc.), 0.1% BSA (SIGMA-ALDRICH) and 1.0% DMSO (FUJIFILM Wako Pure Chemical Corporation), and equilibrated at a flow rate of 30 μL/min. 350 mM EDTA solution was reacted at a flow rate of 10 μL/min for 60 seconds, 0.5 mM […] solution (Kishida Chemical Co., Ltd.) was reacted at a flow rate of 10 μL/min for 60 seconds, and then the NTA sensor chip was washed with 3 mM EDTA solution (Nacalai Tesque, Inc.) at a flow rate of 10 μL/min for 60 seconds. After mixing 50 μL each of 60 mM EDC solution (Global Life Science Technologies Japan K.K.) and 650 mM NHS solution (Global Life Science Technologies Japan K.K.), the reaction was carried out at a flow rate of 10 μL/min for 420 seconds. 150 μL of 0.5 μM hTfR dimer solution was prepared by dilution with running buffer and reacted at a flow rate of 10 μL/min for 300 seconds to immobilize hTfR on the NTA sensor chip. For the human transferrin receptor (hTfR), recombinant hTfR described in Example 2 of WO2018/124121 was used. After immobilization, capping was performed by reacting with 1.0 M ethanolamine solution (Global Life Sciences Technologies Japan K.K.) at a flow rate of 10 μL/min for 420 seconds. Peptide lysate prepared in DMSO solution to 10 mM was diluted with running buffer to be a final concentration of 10 μM peptide lysate, then peptide solutions of 100 nM, 50 nM, 25 nM, 10 nM, and 5 nM were prepared. Using the above samples, the kinetics of the peptide against hTfR was obtained by SPR measurement.
The kinetic evaluation model was single-cycle kinetics, and curve fitting was performed using Biacore T200 Evaluation Software Version 3.0 (Global Life Science Technologies Japan K.K.). The binding of the peptide to hTfR was evaluated by performing curve fitting on the obtained sensorgram by least squares method and obtaining the KD value.
In general terms: Surface plasmon resonance follows binding to a sensor surface in real time, without labels.

For the compound `CC[C@H](C)[C@@H]1NC(=O)[C@H](Cc2cccnc2)NC(=O)[C@H](Cc2ccc(O)cc2)NC(=O)[C@H](CC(N)=O)NC(=O)[C@H](Cc2c[nH]c3ccccc23)NC(=O)[C@H](C(C)C)NC(=O)[C@H](Cc2cccc(Cl)c2)N(C)C(=O)[C@H](C(C)C)NC(=O)[C@H](C)NC(=O)CSC[C@@H](C(=O)NCCOCCOCCOCCOCCC(N)=O)NC(=O)[C@H](Cc2ccc(O)cc2)N(C)C(=O)[C@H](Cc2cccc(C(=O)O)c2)NC(=O)[C@H](CCCNC(=N)N)NC(=O)[C@H](CCCNC(=N)N)NC(=O)[C@H]([C@@H](C)CC)NC1=O` [894_0361] ({CH2CO}-AV[NMePhe(3-Cl)]VWNY[3Pal]IIRR[Phe(3-COOH)][NMeY]C[PEG4]-NH2; thioether N-15), the Kd was in the range of 1 to 100 nM.

For the compound `CC[C@H](C)[C@@H]1NC(=O)[C@H](Cc2ccc(OCC(=O)O)cc2)NC(=O)[C@H](Cc2ccc(O)cc2)NC(=O)[C@H](CC(N)=O)NC(=O)[C@H](Cc2c[nH]c3ccccc23)NC(=O)[C@H](C(C)C)NC(=O)[C@H](Cc2cccc(Cl)c2)N(C)C(=O)[C@H](C(C)C)NC(=O)[C@H](C)NC(=O)CSC[C@@H](C(=O)NCCOCCOCCOCCOCCC(N)=O)NC(=O)[C@H](Cc2ccc(O)cc2)N(C)C(=O)[C@H](Cc2cccc(C(=O)O)c2)NC(=O)[C@H](CCCNC(=N)N)NC(=O)[C@H](CCCNC(=N)N)NC(=O)[C@H]([C@@H](C)CC)NC1=O` [894_0363], the Kd is 1 to 100 nM.

In the case of `CC[C@H](C)[C@@H]1NC(=O)[C@H](Cc2ccc(OCC(=O)O)cc2)NC(=O)[C@H](Cc2ccc(O)cc2)NC(=O)[C@H](CC(N)=O)NC(=O)[C@H](Cc2c[nH]c3ccccc23)NC(=O)[C@H](C(C)C)NC(=O)[C@H](Cc2cccc(Cl)c2)N(C)C(=O)[C@H](C(C)C)NC(=O)[C@H](C)NC(=O)CSC[C@@H](C(=O)NCCOCCOCCOCCOCCC(N)=O)NC(=O)[C@H](Cc2ccc(O)cc2)N(C)C(=O)[C@H](Cc2ccncc2)NC(=O)[C@H](CCCNC(=N)N)NC(=O)[C@H](CCCNC(=N)N)NC(=O)[C@H]([C@@H](C)CC)NC1=O` [894_0364], the Kd was 1 to 100 nM.

In the case of `CC[C@H](C)[C@@H]1NC(=O)[C@H](Cc2ccc(OC)cc2)NC(=O)[C@H](Cc2ccc(O)cc2)NC(=O)[C@H](CC(N)=O)NC(=O)[C@H](Cc2c[nH]c3ccccc23)NC(=O)[C@H](C(C)C)NC(=O)[C@H](Cc2cccc(Cl)c2)N(C)C(=O)[C@H](C(C)C)NC(=O)[C@H](C)NC(=O)CSC[C@@H](C(=O)NCCOCCOCCOCCOCCC(N)=O)NC(=O)[C@H](Cc2ccc(O)cc2)N(C)C(=O)[C@H](Cc2ccncc2)NC(=O)[C@H](CCC(=O)NCCOCCOCCOCCOCCOCCOCCOCCOC)NC(=O)[C@H](CCCNC(=N)N)NC(=O)[C@H]([C@@H](C)CC)NC1=O` [894_0366] ({CH2CO}-AV[NMePhe(3-Cl)]VWNYY(Me)IIRE(NH(CH2CH2O)8Me)[4Pal][NMeY]C[PEG4]-NH2; thioether N-15), the Kd is 1 to 100 nM.

For `CC[C@H](C)[C@@H]1NC(=O)[C@H](Cc2ccc(OCC(=O)O)cc2)NC(=O)[C@H](Cc2ccc(O)cc2)NC(=O)[C@H](CC(N)=O)NC(=O)[C@H](Cc2cn(CC(=O)O)c3ccccc23)NC(=O)[C@H](C(C)C)NC(=O)[C@H](Cc2cccc(Cl)c2)N(C)C(=O)[C@H](C(C)C)NC(=O)[C@H](C)NC(=O)CSC[C@@H](C(=O)NCCOCCOCCOCCOCCC(N)=O)NC(=O)[C@H](Cc2ccc(O)cc2)N(C)C(=O)[C@H](Cc2ccccc2)NC(=O)[C@H](CCCNC(=N)N)NC(=O)[C@H](CCCCNC(=O)OC)NC(=O)[C@H]([C@@H](C)CC)NC1=O` [894_0378], the Kd is less than 1 nM.

With `CC[C@H](C)[C@@H]1NC(=O)[C@H](Cc2ccc(OCC(=O)O)cc2)NC(=O)[C@H](Cc2ccc(O)cc2)NC(=O)[C@H](CC(N)=O)NC(=O)[C@H](Cc2cn(CC(=O)O)c3ccccc23)NC(=O)[C@H](C(C)C)NC(=O)[C@H](Cc2cccc(Cl)c2)N(C)C(=O)[C@H](C(C)C)NC(=O)[C@H](C)NC(=O)CSC[C@@H](C(=O)NCCOCCOCCOCCOCCC(N)=O)NC(=O)[C@H](Cc2ccc(O)cc2)N(C)C(=O)[C@H](Cc2ccccc2)NC(=O)[C@H](CCCCNC(=O)OC)NC(=O)[C@H](CCCNC(=N)N)NC(=O)[C@H]([C@@H](C)CC)NC1=O` [894_0379], the Kd is 1 to 100 nM.

Regarding `CC[C@H](C)[C@@H]1NC(=O)[C@H](Cc2ccc(OCC(=O)O)cc2)NC(=O)[C@H](Cc2ccc(O)cc2)NC(=O)[C@H](CC(N)=O)NC(=O)[C@H](Cc2cn(CC(=O)O)c3ccccc23)NC(=O)[C@H](C(C)C)NC(=O)[C@H](Cc2cccc(Cl)c2)N(C)C(=O)[C@H](C(C)C)NC(=O)[C@H](C)NC(=O)CSC[C@@H](C(=O)NCCOCCOCCOCCOCCC(N)=O)NC(=O)[C@H](Cc2ccc(O)cc2)N(C)C(=O)[C@H](Cc2ccccc2)NC(=O)[C@H](CCCNC(=N)N)NC(=O)[C@H](CCC(=O)NCCO)NC(=O)[C@H]([C@@H](C)CC)NC1=O` [894_0380], the Kd was 1 to 100 nM.

In the case of `CC[C@H](C)[C@@H]1NC(=O)[C@H](Cc2ccc(OCC(=O)O)cc2)NC(=O)[C@H](Cc2ccc(O)cc2)NC(=O)[C@H](CC(N)=O)NC(=O)[C@H](Cc2cn(CC(=O)O)c3ccccc23)NC(=O)[C@H](C(C)C)NC(=O)[C@H](Cc2cccc(Cl)c2)N(C)C(=O)[C@H](C(C)C)NC(=O)[C@H](C)NC(=O)CSC[C@@H](C(=O)NCCOCCOCCOCCOCCC(N)=O)NC(=O)[C@H](Cc2ccc(O)cc2)N(C)C(=O)[C@H](Cc2ccccc2)NC(=O)[C@H](CCC(=O)NCCO)NC(=O)[C@H](CCCNC(=N)N)NC(=O)[C@H]([C@@H](C)CC)NC1=O` [894_0381], the Kd was in the range of 1 to 100 nM.

Turning to `CC[C@H](C)[C@@H]1NC(=O)[C@H](Cc2ccc(OCC(=O)O)cc2)NC(=O)[C@H](Cc2ccc(O)cc2)NC(=O)[C@H](CC(N)=O)NC(=O)[C@H](Cc2cn(CC(=O)O)c3ccccc23)NC(=O)[C@H](C(C)C)NC(=O)[C@H](Cc2cccc(Cl)c2)N(C)C(=O)[C@H](C(C)C)NC(=O)[C@H](C)NC(=O)CSC[C@@H](C(=O)NCCOCCOCCOCCOCCC(N)=O)NC(=O)[C@H](Cc2ccc(O)cc2)N(C)C(=O)[C@H](Cc2ccccc2)NC(=O)[C@H](CCC(=O)NCCO)NC(=O)[C@H](CCC(=O)NCCO)NC(=O)[C@H]([C@@H](C)CC)NC1=O` [894_0382] ({CH2CO}-AV[NMePhe(3-Cl)]V[Trp(1-CH2COOH)]NYY(Carboxymethyl)IIE(NHCH2CH2OH)E(NHCH2CH2OH)F[NMeY]C[PEG4]-NH2; thioether N-15), the Kd was less than 1 nM.

Regarding `CC[C@H](C)[C@@H]1NC(=O)[C@H](Cc2ccc(OCC(=O)O)cc2)NC(=O)[C@H](Cc2ccc(O)cc2)NC(=O)[C@H](CC(N)=O)NC(=O)[C@H](Cc2cn(CC(=O)O)c3ccccc23)NC(=O)[C@H](C(C)C)NC(=O)[C@H](Cc2cccc(Cl)c2)N(C)C(=O)[C@H](C(C)C)NC(=O)[C@H](C)NC(=O)CSC[C@@H](C(=O)NCCOCCOCCOCCOCCC(N)=O)NC(=O)[C@H](Cc2ccc(O)cc2)N(C)C(=O)[C@H](Cc2ccccc2)NC(=O)[C@H](CCCNC(=N)N)NC(=O)[C@H](CCC(=O)N2CCN(CC(=O)O)CC2)NC(=O)[C@H]([C@@H](C)CC)NC1=O` [894_0383], the Kd lay within 1 to 100 nM.

For `CC[C@H](C)[C@@H]1NC(=O)[C@H](Cc2ccc(OCC(=O)O)cc2)NC(=O)[C@H](Cc2ccc(O)cc2)NC(=O)[C@H](CC(N)=O)NC(=O)[C@H](Cc2cn(CC(=O)O)c3ccccc23)NC(=O)[C@H](C(C)C)NC(=O)[C@H](Cc2cccc(Cl)c2)N(C)C(=O)[C@H](C(C)C)NC(=O)[C@H](C)NC(=O)CSC[C@@H](C(=O)NCCOCCOCCOCCOCCC(N)=O)NC(=O)[C@H](Cc2ccc(O)cc2)N(C)C(=O)[C@H](Cc2ccccc2)NC(=O)[C@H](CCC(=O)N2CCN(CC(=O)O)CC2)NC(=O)[C@H](CCCNC(=N)N)NC(=O)[C@H]([C@@H](C)CC)NC1=O` [894_0384], the Kd fell in the range of 1 to 100 nM.

As for `CC[C@H](C)[C@@H]1NC(=O)[C@H](Cc2ccc(OCC(=O)O)cc2)NC(=O)[C@H](Cc2ccc(O)cc2)NC(=O)[C@H](CC(N)=O)NC(=O)[C@H](Cc2cn(CC(=O)O)c3ccccc23)NC(=O)[C@H](C(C)C)NC(=O)[C@H](Cc2cccc(Cl)c2)N(C)C(=O)[C@H](C(C)C)NC(=O)[C@H](C)NC(=O)CSC[C@@H](C(=O)NCCOCCOCCOCCOCCC(N)=O)NC(=O)[C@H](Cc2ccc(O)cc2)N(C)C(=O)[C@H](Cc2ccccc2)NC(=O)[C@H](CCCNC(=N)N)NC(=O)[C@H](CC2CCN(CC(=O)O)CC2)NC(=O)[C@H]([C@@H](C)CC)NC1=O` [894_0386] ({CH2CO}-AV[NMePhe(3-Cl)]V[Trp(1-CH2COOH)]NYY(Carboxymethyl)II[Ala(1-CH2CO2H-4-piperidyl)]RF[NMeY]C[PEG4]-NH2; thioether N-15), the Kd is less than 1 nM.
